Earlier results in article PMC3462432 (FEBS letters, 2012).

Substance | in vitro activity against mouse leukemia cells (mouse leukemia cells) | activity against B. anthracis (B. anthracis)
cypemycin | potent in vitro activity | –
plantazolicin A | – | potent activity
plantazolicin B | – | devoid of activity
